{"source": "patent US20230288411A1", "about": "“POLYPEPTIDE, MULTIMER, SOLID PHASE, MEASUREMENT METHOD FOR TEST SUBSTANCE, AND REAGENT KIT” (SYSMEX CORPORATION, priority 2020, published 2023)", "key": {"D-biotin-labeled albumin": {"test_system": "D-biotin-labeled albumin", "test": "SPR (Biacore T200) binding evaluation to D-biotin-labeled albumin", "design": "species or system bovine", "settings": "analyte flowed at 30 μL/min up to 100 nM, single cycle method, albumin immobilized on sensor chip", "protocol": "(§1) A binding ability of D-streptavidin obtained in Example 1 to D-biotin as a natural form and L-biotin as an optical isomer of D-biotin was evaluated by an intermolecular interaction analyzer (Biacore T200) using SPR as a measurement principle.\nAn N,N-dimethylformamide solution (16.3 μL) containing 10 mg/mL D-biotin-AC5-OSu (manufactured by DOJINDO LABORATORIES) was added to 2.8 mL of 50 mg/mL bovine serum albumin/0.1 M phosphate buffer solution (pH 7.5), and the mixture was stirred, then allowed to stand at 35° C. for 1 hour. Thereafter, desalting was performed by PD-10 (17085101, manufactured by Cytiva) equilibrated with a 0.1 M phosphate buffer (pH 7.5), and D-biotin-labeled albumin was recovered. The number of labeled D-biotin per molecule of albumin by HABA method was 0.4.\nBovine serum albumin was immobilized on flow cells 1 and 3 of a CMS sensor chip (manufactured by Cytiva) of a Biacore T200 system at a target level of 400 RU by an amine coupling method with an amine coupling kit (Cytiva). […]\n(§2) Using HBS-EP+(manufactured by Cytiva) as a running buffer, the prepared D-tamavidin (trademark) 2 was flowed into each flow cell at a flow rate of 30 μL/min in the range of 100 pM to 100 nM by a single cycle method, and binding and dissociation to D-biotin or L-biotin was evaluated by Biacore T200 Evaluation Software (manufactured by Cytiva)."}, "L-biotin-labeled albumin": {"test_system": "L-biotin-labeled albumin", "test": "SPR (Biacore T200) binding evaluation to L-biotin-labeled albumin", "design": "species or system bovine", "settings": "analyte flowed at 30 μL/min up to 100 nM, single cycle method, albumin immobilized on sensor chip", "protocol": "as §1\nSimilarly, L-biotin-labeled albumin was prepared using L-biotin-AC5-OSu [see (Amidation of L-biotin) described in Example 3 above].\nBovine serum albumin was immobilized on flow cells 1 and 3 of a CMS sensor chip (manufactured by Cytiva) of a Biacore T200 system at a target level of 400 RU by an amine coupling method with an amine coupling kit (Cytiva). Further, L-biotin-labeled albumin and D-biotin-labeled albumin were immobilized at a target level of 400 RU to flow cells 2 and 4, respectively, similarly by an amine coupling method. Blocking was performed in each flow cell with 1 M ethanolamine solution, pH 8.5 (manufactured by Cytiva). […]\nas §2"}}, "data": [{"substance": "D-streptavidin: tetrameric polypeptide of 13th to 139th amino acids of SEQ ID NO: 1 composed of D-amino acid residues", "values": [{"measurement": "binding to D-biotin-labeled albumin (SPR sensorgram)", "setting": "D-biotin-labeled albumin", "value": "not substantially bound"}, {"measurement": "binding to L-biotin-labeled albumin (SPR sensorgram)", "setting": "L-biotin-labeled albumin", "value": "very strongly bound"}]}, {"substance": "natural core streptavidin: commercially available tetrameric natural core streptavidin (manufactured by Roche) [reference compound]", "values": [{"measurement": "binding to D-biotin-labeled albumin (SPR sensorgram)", "setting": "D-biotin-labeled albumin", "value": "very strongly bound"}]}]}
